Results taken from US12343428B2, “Compositions and methods for cancer treatment” (University of Virginia Patent Foundation, priority 2017, dated 2025).

Experiments:
[1] = test system: LNCaP and C4-2 cells; test: Synergy studies of CNL with abiraterone acetate or enzalutamide (MTS, isobolograms); assay type: cell-based, human; details: two AR positive cell lines; drug alone
Experimental: Viability was assayed using MTS assay (Promega […] 96® AQueous Non-Radioactive Cell Proliferation Assay) according to manufacturer instructions. […] Results were normalized to the respective negative controls of each experiment.

[2] = test system: LNCaP cells; test: LC-MS/MS lipid levels in LNCaP cells; assay type: cell-based, human; details: 10 μM abiraterone acetate alone
Experimental: Cells were plated in 6-well plates for 48 hours before being exposed to CNL 10 μM and/or Abiraterone Acetate 10 μM, as well as respective controls (Ghost liposome and Ethanol respectively). Cells were collected after 1 hour, 4 hours, 12 hours, 24 hours, and 48 hours of exposure. Cells were lysed with 0.1× PBS and protein quantification was determined using a DC™ brand Protein Assay (Bio-Rad Laboratories, Inc., Hercules, California, United States of America). The Metabolomics core at University of Virginia performed lipid extraction, LC-MS/MS injections, and data analysis.

[3] = test system: SCC-25 HNSCC cells; test: MTS cell viability assay, SCC-25 HNSCC cells; assay type: cell-based, human; details: for viability at 25 µM: Homo sapiens, 48 hours
Experimental: (§1) To evaluate cell viability in HNSCC cell lines after drug exposure, 5,000 cells were plated in 96-well plates. After 16-30 hours, cells were exposed to each drug alone or in combination, and viability was measured every 24 hours for a total of 48 hours. Viability was assayed using a […] 96® brand AQueous Non-Radioactive Cell Proliferation MTS Assay (Promega Corporation) according to manufacturer's instructions. A minimum of three biologically independent experiments were performed. Results were normalized to the respective negative controls of each experiment.
(§2) To evaluate cell viability of HNSCC cell lines after exposure to various amounts of Erlotinib, 5,000 UNC-10 or SCC-25 cells were plated in 96-well plates. After 16-30 hours, cells were exposed to each Erlotinib at 0 μM, 0.5 μM, 1 μM, 5 μM, 10 μM, and 25 μM, and viability was measured at 24 and 48 hours. Viability was assayed using MTS assay (Promega […] 96® AQueous Non-Radioactive Cell Proliferation Assay) according to manufacturer instructions. A minimum of three biologically independent experiments were performed. Results were normalized to the respective negative controls of each experiment.
(§3) To evaluate cell viability in HNSCC cell lines after exposure to CNLs, similar experiments were performed with five different concentrations of CNLs alone: 0 μM, 2.5 μM, 5 μM, 10 μM, 25 μM. 5,000 UNC-10 or SCC-25 cells were plated in 96-well plates. After 16-30 hours, cells were exposed to each drug alone or in combination, and viability was measured every 24 hours for a total of 48 hours. Viability was assayed using MTS assay (Promega […] 96® AQueous Non-Radioactive Cell Proliferation Assay) according to manufacturer instructions. A minimum of three biologically independent experiments were performed.
(§4) To evaluate cell viability in HNSCC cell lines after exposure to CNLs plus an EGFR inhibitor, 5,000 cells were plated in 96-well plates. After 16-30 hours, cells were exposed to six different concentrations of Erlotinib (0 μM, 0.5 μM, 1 μM, 5 μM, 10 μM, & 25 μM) combined with five different concentrations of CNLs (0 μM, 2.5 μM, 5 μM, 10 μM, & 25 μM), and viability was measured at 24 hours and 48 hours. Viability was assayed using MTS assay (Promega […] 96® AQueous Non-Radioactive Cell Proliferation Assay) according to manufacturer instructions. A minimum of three biologically independent experiments were performed. Results were normalized to the respective negative controls of each experiment.

[4] = test system: UNC-10 HNSCC cells; test: LC-MS/MS sphingolipid profile, UNC-10; assay type: cell-based, human; details: 25 μM Erlotinib, 0, 3, 6 hours
Experimental: (§5) To determine Erlotinib's effect on the sphingolipid profile in HNSCC, 500,000 cells of two different cell lines (UNC-7 & UNC-10) were plated and grown in cell culture. When these cells reached about 70% confluence, they were treated with 25 μM Erlotinib. After addition of the Erlotinib, cells were collected immediately, three hours later, or six hours later. Collected cells were lysed using 0.1× PBS and protein quantification was determined using a Pierce BCA Protein Assay (Thermo Fisher Scientific) according to the manufacturer's instructions. Cell lysates containing 250 μg of protein were then used for lipid extractions. […] The sphingolipids were then analyzed using LC-MS/MS.

[5] = test system: UNC-7 HNSCC cells; test: LC-MS/MS sphingolipid profile, UNC-7; assay type: cell-based, human; details: 25 μM Erlotinib, 0, 3, 6 hours
Experimental: as §5

[6] = test system: SCC-25 cells; test: Flow cytometry viability dye assay, SCC-25 cells; assay type: cell-based; details: Homo sapiens, 48 hours, 25 μM Erlotinib
Experimental: (§6) To evaluate cell death in HNSCC cell lines exposed to CNL and/or Erlotinib or Gefitinib, a flow cytometry assay was performed. Cells were plated in 24-well plates for 16-30 hours before being pre-treated for one hour with Erlotinib or Gefitinib (0 μM, 10 μM, 25 μM) and then with CNL (0 μM, 2.5 μM, 5 μM). After 24 or 48 hours, cells were stained with a Fixable Viability Dye EFLUOR™ 780 brand a viability dye (ThermoFischer Scientific Inc.)
(§7) according to the manufacturer's recommendations. The use of this dye allowed us to differentiate between two cell populations: dead or live cells. Flow cytometry controls (alive/stained, alive/non-stained, & dead/stained) were used to allow for a more rigorous discrimination between populations. Results were normalized to the respective negative controls of each experiment. Data analysis was performed using FlowJo Software.
(§8) In order to evaluate cell death in HNSCC cell lines exposed to CNL and/or Erlotinib or Gefitinib, flow cytometry assays were also performed. Cells were plated in 24-well plates for 16-30 hours before being pre-treated for one hour with Erlotinib or Gefitinib (0 μM, 10 μM, 25 μM) and then with CNL (0 μM, 2.5 μM, 5 μM). After 24 or 48 hours, cells were stained with a viability dye (Fixable Viability Dye EFLUOR™ 780, ThermoFischer Scientific) according to the manufacturer recommendations. […]

[7] = test system: eight different HNSCC cell lines; test: MTS cell viability assays in eight HNSCC cell lines; assay type: cell-based, human; details: any of the cell lines, concentrations and time points
Experimental: Drugs concentrations. […] For synergistic experiments: abiraterone acetate (Selleckchem, Houston, Texas, United States of America) was used at 0.5 μM, 1 μM, 5 μM, 10 μM, 20 μM; enzalutamide (Selleckchem) at 1 μM, 5 μM, 10 μM, 20 μM, 30 μM; and CNL at 5 μM, 10 μM, 20 μM, and 30 μM. During synergy studies, each concentration of either abiraterone acetate or enzalutamide was combined with either Ghost (negative) control (nanoliposomes without the C6 ceramide—active agent) or each concentration of CNL. Respective negative controls for abiraterone acetate and enzalutamide were also used. Synergy experiments were performed in LNCaP and C4-2 cells. For synergistic studies using the HNSCC cell lines, all eight cell lines were pre-treated for one hour with either Erlotinib (Selleckchem) or Gefitinib (Sigma-Aldrich Corporation, St. Louis, Missouri, United States of America) before adding CNL. Six different concentrations of Erlotinib and Gefitinib (0 μM, 0.5 μM, 1 μM, 5 μM, 10 μM, and 25 μM) were tested against five different CNL concentrations (0 μM, 2.5 μM, 5 μM, 10 μM, and 25 μM). […]
To evaluate cell viability in HNSCC cell lines after drug exposure, 5,000 cells were plated in 96-well plates. After 16-30 hours, cells were exposed to each drug alone or in combination, and viability was measured every 24 hours for a total of 48 hours. […]

[8] = test system: UNC-10 HNSCC cells; test: MTS cell viability assay, UNC-10 HNSCC cells; assay type: cell-based, human
Experimental: as §1, §2, §3, §4

[9] = test system: UNC-10 cells; test: Flow cytometry viability dye assay, UNC-10 cells; assay type: cell-based; details: Homo sapiens, 48 hours, 25 μM Erlotinib
Experimental: as §6, §7, §8

CNC(=O)c1ccc(N2C(=S)N(c3ccc(C#N)c(C(F)(F)F)c3)C(=O)C2(C)C)cc1F [Enzalutamide]
reduction of viability as single treatment [1]: not as effective as a single treatment

CC(=O)O[C@H]1CC[C@@]2(C)C(=CC[C@@H]3[C@@H]2CC[C@]2(C)C(c4cccnc4)=CC[C@@H]32)C1 [abiraterone acetate]
reduction of viability as single treatment [1]: effective in reducing the viabilities of PCa cells | C6 ceramide levels [2]: not changed | total ceramide levels [2]: not changed

C#Cc1cccc(Nc2ncnc3cc(OCCOC)c(OCCOC)cc23)c1 [Erlotinib]
effect on cell viability ([3]; Erlotinib alone, higher concentrations, 24 or 48 hours): not statistically significant | viability at 25 µM ([3]; 25 μM Erlotinib): 89% | sphingolipid levels [4]: able to alter sphingolipid levels | sphingolipid levels [5]: able to alter sphingolipid levels | viability at 25 µM [6]: 89% | effect of Erlotinib alone on cell viability [7]: failing to produce any meaningful effects | effect on cell viability ([8]; Erlotinib alone 0.5-25 μM, 24 or 48 hours): little effect | viability at 25 µM ([8]; Homo sapiens, 48 hours, 25 μM Erlotinib): 90% | viability at 25 µM [9]: 91%

COc1cc2ncnc(Nc3ccc(F)c(Cl)c3)c2cc1OCCCN1CCOCC1 [Gefitinib]
effect on viability compared with UNC-10 ([3]; Gefitinib alone, 24 hours and 48 hours): less striking | viability at 25 µM ([3]; 25 μM Gefitinib): 81% | effect on viability ([8]; Gefitinib at 5 μM or less, 24 hours or 48 hours): little effect | effect on viability ([8]; Gefitinib higher concentrations (10, 25 μM), particularly at 24 hours): reduced viability | viability at 5 µM ([8]; Homo sapiens, 48 hours, 5 μM Gefitinib): 97%
